Values after ≈ are worked out from the molar mass of the structure shown.

What all share (assay type): binding
Assay [1] deals with rabbit anti-SDMA antibody in serum, Rabbit # 152 (SDMA-KLH immunogen). Nature of the assay: Competitive ELISA, specificity of rabbit anti-SDMA antiserum, Rabbit #152. The conditions noted are these: Rabbit # 152 antiserum (1:5K); for % Cross Reactivity: IC50 of SDMA / IC50 of competitor x 100; for IC 50: competition with SDMA-HRP conjugate, absorbance 450 nm. The procedure:
(§1) The immunization protocol for generating the anti-SDMA antibodies was carried out according to the following protocol. Six California breed rabbits were immunized with an SDMA-conjugate. Three of the six rabbits were immunized with SDMA conjugated with BSA (rabbits #155, 156 and 157) and the other three rabbits were immunized with SDMA conjugated with KLH (rabbits #152, 153 and 154) (prepared as described in Example 2). For primary immunizations, each rabbit was injected with 0.5 mg of the SDMA conjugate in 1 ml of phosphate buffered saline (PBS) mixed with 1 ml of Freund's complete adjuvant. Each rabbit received 20-30 intradermal injections on their shaved back. Each rabbit was boosted with 0.25 mg of immunogen in 1 ml PBS mixed with equal volume of Freund's incomplete adjuvant in the hind legs. The boosting shots were given each month after the primary injection. Test bleeds of 5 ml blood were taken from each rabbit 7-10 days after each boost. Production bleeds of 40 ml were taken from each rabbit after the third booster shot, when the antisera titer was greater than about 1:2000. Antiserum titer is the dilution of antiserum that generates the steepest calibration curve for the assay.
(§2) In order to assess the specificity of the antibodies obtained by the procedures described in Example 3 above, their reactivity to SDMA, ADMA, L-arginine, and/or N-methylarginine was measured in a competitive ELISA assay (Table 1).
(§3) ADMA-2HCl, SDMA-2HCl, N-methylarginine acetate (Sigma, Cat. No. M7033) or L-arginine (Sigma, Cat. No. A5006) were each dissolved in PBS to make stock solutions at 1 mg/ml. From these stock solutions, working solutions at 100 μg/ml, 10 μg/ml and 1 μg/ml were prepared in PBS.
(§4) […] After a 30 minutes incubation period at room temperature, the wells were washed 4 times with PBST (Phosphate Buffered Saline, 0.05% Tween).
(§5) 100 μl of 3,3′,5,5′-Tetramethylbenzidine (commercially available from Promega Corporation of Madison, WI) was subsequently added. Following a 30 minutes incubation period at room temperature, 100 μl of stop solution (1 N HCl) was added and the absorbance was measured at 450 nm using a BioTek ELX 808 (Winooski, VT) plate reader. The data was subjected to quantification using Softmax software (Molecular Devices, Sunnyvale, CA).
(§6) The absorbance values obtained with 0 μg/mL, 1 μg/mL, 10 μg/mL, and 100 μg/mL of ADMA, SDMA, N-methylarginine or L-arginine, respectively, were determined and plotted. The concentration of SDMA at which the absorbance value was reduced by 50% (relative to the maximum absorbance obtained at 0 μg/mL SDMA; i.e. IC50) was divided by each of the concentrations of ADMA, N-methylarginine or L-arginine, respectively, at which the absorbance value was reduced by 50% (IC50). The resulting value was multiplied by 100 to obtain the value “% cross-reactivity”.
On the technique in general: In an ELISA, binding on a coated surface is turned into a signal by an enzyme label.

The subject of assay [2] is rabbit anti-SDMA antibody in serum, Rabbit # 153 (SDMA-KLH immunogen). Description: Competitive ELISA, specificity of rabbit anti-SDMA antiserum, Rabbit #153. The conditions noted are these: Rabbit # 153 antiserum (1:2.5K); for % Cross Reactivity: IC50 of SDMA / IC50 of competitor x 100; for IC 50: competition with SDMA-HRP conjugate, absorbance 450 nm. The procedure: as §1, §2, §3, §4, §5, §6

Assay [3] has as its system rabbit anti-SDMA antibody in serum, Rabbit # 154 (SDMA-KLH immunogen). Description: Competitive ELISA, specificity of rabbit anti-SDMA antiserum, Rabbit #154. The settings on record: Rabbit # 154 antiserum (1.25K); for % Cross Reactivity: IC50 of SDMA / IC50 of competitor x 100; for IC 50: competition with SDMA-HRP conjugate, absorbance 450 nm. The procedure: as §1, §2, §3, §4, §5, §6

Assay [4] relates to rabbit anti-SDMA antibody in serum, Rabbit # 155 (SDMA-BSA immunogen). Description: Competitive ELISA, specificity of rabbit anti-SDMA antiserum, Rabbit #155. The conditions noted are these: Rabbit # 155 antiserum (1:3K); for % Cross Reactivity: IC50 of SDMA / IC50 of competitor x 100; for IC 50: competition with SDMA-HRP conjugate, absorbance 450 nm. The procedure: as §1, §2, §3
(§7) 50 μl of the SDMA-HRP conjugate (as described in Example 5 below), 50 μl of ADMA, SDMA, N-methylarginine or L-arginine (at concentrations from 1-100 μg/ml as described above), and 50 μl of rabbit anti-SDMA antibody in serum (1:3000 titer) were sequentially added to an individual well in a 96-well polystyrene microwell plate, precoated with sheep anti-rabbit IgG (commercially available from Beacon Analytical Systems Inc. of Portland, ME). After a 30 minutes incubation period at room temperature, the wells were washed 4 times with PBST (Phosphate Buffered Saline, 0.05% Tween).
as §5, §6

The test system of assay [5] is rabbit anti-SDMA antibody in serum, Rabbit # 156 (SDMA-BSA immunogen). Nature of the assay: Competitive ELISA, specificity of rabbit anti-SDMA antiserum, Rabbit #156. The settings on record: Rabbit # 156 antiserum (1:20K); for % Cross Reactivity: IC50 of SDMA / IC50 of competitor x 100; for IC 50: competition with SDMA-HRP conjugate, absorbance 450 nm. The procedure: as §1, §2, §3, §4, §5, §6

Assay [6] deals with rabbit anti-SDMA antibody in serum, Rabbit # 157 (SDMA-BSA immunogen). Description: Competitive ELISA, specificity of rabbit anti-SDMA antiserum, Rabbit #157. The conditions noted are these: Rabbit # 157 antiserum (1:15K); for % Cross Reactivity: IC50 of SDMA / IC50 of competitor x 100; for IC 50: competition with SDMA-HRP conjugate, absorbance 450 nm. The protocol:
as §1, §2, §3, §4, §5, §6

In assay [7] the test system is polyclonal antibody from Rabbit No. 154 (anti-SDMA). Nature of the assay: Competitive ELISA, specificity with greater stringency, polyclonal antibody from Rabbit No. 154. The settings on record: polyclonal antibody from Rabbit No. 154, determined with greater stringency. The protocol:
as §7, §5, §6
In another experiment, using only polyclonal antibody from Rabbit No. 154, the specificity of the antibody was determined with greater stringency by the method described above.

On to `N=C(N)NCCC[C@H](N)C(=O)O` [L-Arginine, L-arginine], for which the “% Cross Reactivity” value in assay [1], in assay [2], in assay [3], in assay [4], in assay [5] and in assay [6] was less than 1% throughout. For the same compound, the “IC 50” value in assay [1], in assay [2], in assay [3], in assay [4], in assay [5] and in assay [6] was more than 100 µg/mL each time. Further, the “Specificity (Cross-Reactivity) Rabbit No. 154 Cross-reactivity” value in assay [7] is less than 0.01%.
As to `CNC(=N)NCCCC(N)C(=O)O` (stereo not drawn) [N-MMA, N-monomethylarginine], the “% Cross Reactivity” value in assay [1], in assay [2], in assay [3], in assay [4], in assay [5] and in assay [6] was less than 1% throughout. The “IC 50” value is more than 100 µg/mL in assay [1]; more than 100 µg/mL in assay [2]; more than 100 µg/mL in assay [3]; 79 µg/mL (≈ 420 µM) in assay [4]; more than 100 µg/mL in assay [5]; more than 100 µg/mL in assay [6].
For `C/N=C(\NC)NCCCC(N)C(=O)O` (stereo not drawn) [SDMA, symmetrical dimethylarginine], the “% Cross Reactivity” value in assay [1], in assay [2], in assay [3], in assay [4], in assay [5] and in assay [6] was 100% each time. Moreover, the “IC 50” value in assay [1] is 1.10 µg/mL (≈ 5.44 µM); in assay [2] it was 0.65 µg/mL (≈ 3.21 µM); in assay [3], 0.49 µg/mL (≈ 2.42 µM); in assay [4], 0.73 µg/mL (≈ 3.61 µM); in assay [5], 1.3 µg/mL (≈ 6.43 µM); in assay [6] it was 1.6 µg/mL (≈ 7.91 µM). In assay [7], the “Specificity (Cross-Reactivity) Rabbit No. 154 Cross-reactivity” value is recorded as 100%.
`CN(C)C(=N)NCCCC(N)C(=O)O` (stereo not drawn) [ADMA, asymmetrical dimethylarginine]: the “% Cross Reactivity” value in assay [1], in assay [2], in assay [3], in assay [4], in assay [5] and in assay [6] was less than 1% throughout. The “IC 50” value in assay [1], in assay [2], in assay [3], in assay [4], in assay [5] and in assay [6] was more than 100 µg/mL in each case. For the same compound, the “Specificity (Cross-Reactivity) Rabbit No. 154 Cross-reactivity” value in assay [7] is less than 0.2%.

(Values after patent US20250271442A1, “Methods for Detecting Renal Disease” (IDEXX Laboratories, Inc., priority 2013, published 2025).)
